PubChem BioAssay (NCI)
Where “and” joins values, the source holds several entries; their conditions need not be identical. Identical values can stand only once.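 These data come from cells grown in 96-well plates and exposed to compound for 48 hours at five concentrations. GI50: concentration for 50% inhibition of growth. TGI: concentration producing complete growth inhibition.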

Legend:
Experiment in all cases: NCI tumour cell line growth inhibition, 48 h
HCC-2998 colon = test system: HCC-2998 colon
KM12 colon = test system: KM12 colon
NCI-H460 lung = test system: NCI-H460 lung
NCI-H522 lung = test system: NCI-H522 lung
RXF 393 renal = test system: RXF 393 renal
SF-268 CNS = test system: SF-268 CNS
SK-MEL-2 melanoma = test system: SK-MEL-2 melanoma
SK-MEL-28 melanoma = test system: SK-MEL-28 melanoma
SW-620 colon = test system: SW-620 colon
U251 CNS = test system: U251 CNS

| Compound | TGI (HCC-2998 colon) | TGI (KM12 colon) | TGI (NCI-H460 lung) | TGI (NCI-H522 lung) | TGI (RXF 393 renal) | TGI (SF-268 CNS) | TGI (SK-MEL-2 melanoma) | TGI (SK-MEL-28 melanoma) | TGI (SW-620 colon) | TGI (U251 CNS) | GI50 (HCC-2998 colon) | GI50 (KM12 colon) | GI50 (NCI-H460 lung) | GI50 (NCI-H522 lung) | GI50 (RXF 393 renal) | GI50 (SF-268 CNS) | GI50 (SK-MEL-2 melanoma) | GI50 (SK-MEL-28 melanoma) | GI50 (SW-620 colon) | GI50 (U251 CNS) |
| --- | --- | --- | --- | --- | --- | --- | --- | --- | --- | --- | --- | --- | --- | --- | --- | --- | --- | --- | --- | --- |
| CCOC(=O)C(=O)N=Nc1nc2c(O)c3ccccc3c(O)c2s1 | 28.6 µM | 20.8 µM | 26.7 µM | 8.79 µM | 9.55 µM | 10.8 µM | 8.98 µM | 6.38 µM | 5.7 µM | 14.1 µM | – | – | – | – | – | – | – | – | – | – |
| CC[C@@H](C(=O)[C@@H](C)[C@@H](O)[C@H](C)[C@@H]1O[C@@H]([C@@H](CC)C(=O)O)CC[C@@H]1C)[C@H]1OC2(C=C[C@@H](O)[C@]3(CC[C@@](C)([C@H]4CC[C@](O)(CC)[C@H](C)O4)O3)O2)[C@H](C)C[C@@H]1C (some centres not stated) | 10.5 µM | 8.43 µM | 7.79 µM | 0.605 µM | 1.85 µM | 26.3 µM | 2 µM | 1.31 µM | 9.14 µM | 5.56 µM | 0.105 µM | 0.766 µM | 0.324 µM | 0.0774 µM | 0.0485 µM | 1.7 µM | 0.622 µM | 0.63 µM | 0.733 µM | 0.135 µM |
| COc1ccc2c(=O)c3cc([N+](=O)[O-])ccc3n(C)c2c1 | > 100 µM | > 100 µM | > 100 µM | > 100 µM | > 100 µM | > 100 µM | > 100 µM | > 100 µM | > 100 µM | > 100 µM | – | – | – | – | – | – | – | – | – | – |
| COc1c(CNC(=O)CCl)cc2[nH]c(C)cc2c1CNC(=O)CCl | 30.4 µM | 19.4 µM | 15.6 µM | 4.16 µM | 14.1 µM | 21.7 µM | 41.6 µM | 29.8 µM | 20.7 µM | 4.7 µM | 13.2 µM | 6.08 µM | 3.73 µM | 1.82 µM | 3.5 µM | 3.44 µM | 11 µM | 5.44 µM | 5.61 µM | 1.94 µM |
| Cc1ccccc1N=Nc1c(O)[nH]c2ccccc12 | > 100 µM | > 100 µM | > 100 µM | > 100 µM | > 100 µM | > 100 µM | > 100 µM | > 100 µM | > 100 µM | > 100 µM | – | – | – | – | – | – | – | – | – | – |
| COc1ccc(-c2nn(-c3cccc(NC(=O)Nc4cc(C(F)(F)F)cc(C(F)(F)F)c4)c3)cc2-c2ccncc2)cc1Cl | 9.18 µM | 4.17 µM | 4.9 µM | 2.64 µM | 2.4 µM | 8.68 µM | 2.8 µM | 4.18 µM | 6.5 µM | 1.73 µM | 2.02 µM | 1.09 µM | 0.872 µM | 0.837 µM | 0.849 µM | 1.59 µM | 1.23 µM | 1.14 µM | 1.35 µM | 0.731 µM |
| CNc1ccc(-c2cc(=O)oc3ccc(Cl)cc23)cc1 | 17.1 µM | > 100 µM | > 100 µM | 0.311 µM | > 100 µM | > 100 µM | 0.0932 µM | > 100 µM | > 100 µM | > 100 µM | 0.373 µM and 0.127 µM | 0.0506 µM and 0.0433 µM | 0.0487 µM and 0.0441 µM | 0.03 µM | 0.0912 µM | 0.247 µM and 0.066 µM | 0.215 µM and 0.0294 µM | 2.08 µM | 0.0477 µM and 0.0437 µM | 0.175 µM and 0.0472 µM |
| CCC[CH2][Sn]([CH2]CCC)([O]C(=O)c1nccnc1N)[O]C(=O)c1nccnc1N | 2.45 µM | 2.74 µM | 3.33 µM | 0.18 µM | 1.31 µM | 1.97 µM | 1.62 µM | 2.04 µM | 1.26 µM | 1.65 µM | 1.21 µM | 1.42 µM | 1.63 µM | 0.052 µM | 0.187 µM | 0.64 µM | 0.424 µM | 0.769 µM | 0.319 µM | 0.478 µM |
| NCC1OC(OC2C(CO)OC(OC3C(O)C(N)CC(N)C3OC3OC(CO)C(O)C(O)C3N)C2O)C(N)C(O)C1O (configuration not stated) | > 50 µg/mL | > 50 µg/mL | > 50 µg/mL | > 50 µg/mL | > 50 µg/mL | > 50 µg/mL | > 50 µg/mL | > 50 µg/mL | > 50 µg/mL | > 50 µg/mL | > 50 µg/mL | > 50 µg/mL | > 50 µg/mL | > 50 µg/mL | > 50 µg/mL | > 50 µg/mL | > 50 µg/mL | > 50 µg/mL | > 50 µg/mL | > 50 µg/mL |
| O=C1c2ccccc2-c2c1c1ccccc1c(=O)n2CCCN1CCN(CCCn2c3c(c4ccccc4c2=O)C(=O)c2ccccc2-3)CC1 | > 100 µM | > 100 µM | > 100 µM | > 100 µM | > 100 µM | > 100 µM | > 100 µM | > 100 µM | > 100 µM | 18.7 µM | > 100 µM | > 100 µM | > 68 µM | > 100 µM | 46.2 µM | 25 µM | > 100 µM | > 100 µM | > 100 µM | 5.44 µM |
| COC(=O)Nc1nc2cc3c(cc2s1)OCCO3 | > 50 µM | > 50 µM | > 50 µM | > 50 µM | > 50 µM | > 50 µM | > 50 µM | > 50 µM | > 50 µM | > 50 µM | > 50 µM | > 50 µM | > 50 µM | > 50 µM | > 50 µM | > 50 µM | > 50 µM | > 50 µM | > 50 µM | > 50 µM |
| COc1ccc(Cc2cnc(NC(=O)c3sc4ccccc4c3Cl)s2)cc1 | > 100 µM | > 100 µM | > 100 µM | – | 0.579 µM | > 100 µM | > 100 µM | > 100 µM | > 100 µM | > 100 µM | 0.547 µM | 0.383 µM | 0.365 µM | 0.279 µM | 0.179 µM | 1.26 µM | 0.703 µM | 3.84 µM | 0.409 µM | 0.382 µM |
| CC(=O)OC(C)(C)N=Nc1ccc(Br)cc1 | > 100 µM | > 100 µM | 26 µM | 33.8 µM | > 60.4 µM | > 100 µM | > 100 µM | > 100 µM | > 100 µM | > 100 µM | – | – | – | – | – | – | – | – | – | – |
| CC1(C)CC2C=C(C=O)C3(C=O)CC3(C)C2C1 (configuration not stated) | 18.2 µM | 13.5 µM | 10.6 µM | 2.51 µM | 3.41 µM | 6.02 µM | 4.45 µM | 4.19 µM | 2.4 µM | 6.45 µM | – | – | – | – | – | – | – | – | – | – |
| Nc1ccccc1NC(=O)c1ccc(CN2CCC/C(=C\c3cccc(Cl)c3)C2=O)cc1 | 5.7 µM | 13.4 µM | > 100 µM | 1.06 µM | 5.23 µM | 6.74 µM | 18.2 µM | 58.9 µM | > 100 µM | 13.2 µM | 1.18 µM | 0.378 µM | 0.0962 µM | 0.225 µM | 0.277 µM | 1.41 µM | 1.23 µM | 1.16 µM | 0.0539 µM | 0.138 µM |
| CN(C)CCCNc1nccc(-c2c(-c3ccc(F)cc3)nn3cc(C(F)(F)F)ccc23)n1 | 15 µM | > 25 µM | > 25 µM | > 25 µM | 9.6 µM | > 25 µM | 14.2 µM | 8.49 µM | > 25 µM | > 25 µM | 4.54 µM | 8.3 µM | 6.97 µM | 6.77 µM | 3.34 µM | 9.79 µM | 5.33 µM | 4.29 µM | 7.33 µM | 10.7 µM |
| C[C@H]1CC[C@@H]2[C@@H](C)[C@H]3[C@H](C[C@H]4[C@@H]5CC=C6C[C@@H](O)CC[C@]6(C)[C@H]5C[C@H](O)[C@]34C)N2C1 | > 100 µM | > 100 µM | > 100 µM | > 100 µM | > 100 µM | > 100 µM | > 100 µM | > 100 µM | > 100 µM | > 100 µM | – | – | – | – | – | – | – | – | – | – |
| CC1=C(/C=C/C(C)=C/C=C/C(C)=C/C(=O)Nc2ccc(O)cc2)C(C)(C)CCC1 | 5.97 µM and 18 µM | 6.19 µM and 17.2 µM | 9.48 µM and 25.2 µM | 0.787 µM and 2.82 µM | 6.5 µM and 5.43 µM | 3.94 µM and 14.2 µM | 13.3 µM and 17.4 µM | 8.69 µM and 12.1 µM | 13.7 µM and 44.5 µM | 7.79 µM and 33.3 µM | 2.12 µM | 1.58 µM | 2.58 µM | 0.262 µM | – | 1.52 µM | 4.17 µM | 2.87 µM | – | 1.94 µM |
